Test results taken from US11584765B2 (priority 2017, dated 2023).

System: C57BL/6 mice
Experiment: animal or person
Format: in vivo
Conditions: Mus musculus, sc, 0.5 h, s.c. administration, 30 min, 55° C. water, read-out: ED50 (mg/kg) at 30 min on C57BL/6 mice in Warm-water Tail-flick Test

| SMILES | ED50 |
| --- | --- |
| CC(=O)Nc1ccc(CN2CCC(CCCc3ccccc3)(c3ccccn3)CC2)cc1 [Compound 15, N-(4-((4-(3-phenylpropyl)-4-(pyridin-2-yl)piperidin-1-yl)methyl)phenyl)acetamide] | > 10 mg/kg |
| CC(c1cccnc1)N1CC[C@@](CO)(CCc2cccs2)C1 (stereo partly drawn) [Compound 414, ((3S)-1-(1-(pyridin-3-yl)ethyl)-3-(2-(thiophen-2-yl)ethyl)pyrrolidin-3-yl)methanol] | < 10 mg/kg |
| CCOC(C)(C)[C@@]1(CCc2cccs2)CCN(C(C)c2ccc(C)nc2C)C1 (stereo partly drawn) [Compound 403, 3-(1-((S)-3-(2-ethoxypropan-2-yl)-3-(2-(thiophen-2-yl)ethyl)pyrrolidin-1-yl)ethyl)-2,6-dimethylpyridine] | < 10 mg/kg |
| CCOCC1(/C=C/c2ccsc2)CCN(Cc2ccc(NC(C)=O)cc2)CC1 [Compound 167, (E)-N-(4-((4-(ethoxymethyl)-4-(2-(thiophen-3-yl)vinyl)piperidin-1-yl)methyl)phenyl)acetamide] | > 10 mg/kg |
| CNc1ccc(CN2CCC(CCc3ccccc3)(c3ccccn3)CC2)cc1 [Compound 25, N-methyl-4-((4-phenethyl-4-(pyridin-2-yl)piperidin-1-yl)methyl)aniline] | > 10 mg/kg |
| Cc1ccc(CN2CCC(CCc3ccccc3)(C3CCCO3)C2)c(C)n1 (centres unmarked) [Compound 273, 2,6-dimethyl-3-((3-phenethyl-3-(tetrahydrofuran-2-yl)pyrrolidin-1-yl)methyl)pyridine] | < 10 mg/kg |
| CCOCC1(CCc2ccccc2)CCN(C(CC)c2cnc(C)cc2CC)CC1 (centres unmarked) [Compound 400, 5-(1-(4-(ethoxymethyl)-4-phenethylpiperidin-1-yl)propyl)-4-ethyl-2-methylpyridine] | < 10 mg/kg |
| CC(=O)Nc1ccc(CN2CCC(CCc3ccccc3)(C3(C)CCCCO3)CC2)cc1 (centres unmarked) [Compound 165, N-(4-((4-(2-methyltetrahydro-2H-pyran-2-yl)-4-phenethylpiperidin-1-yl)methyl)phenyl)acetamide] | < 10 mg/kg |
| c1ccc(CCC2(C3CCCCO3)CCN(Cc3ccccc3-c3cccs3)C2)cc1 (centres unmarked) [Compound 209, 3-phenethyl-3-(tetrahydro-2H-pyran-2-yl)-1-(2-(thiophen-2-yl)benzyl)pyrrolidine] | > 10 mg/kg |
| CCOCC1(CCc2ccccc2)CCN(Cc2ccc(-c3nc(C)no3)cc2)CC1.Cl [Compound 135, 5-(4-((4-(ethoxymethyl)-4-phenethylpiperidin-1-yl)methyl)pheny)-3-methyl-1,2,4-oxadiazole HCl] | > 10 mg/kg |
| CC(=O)Nc1ccc(CN2CCC(CCc3ccccc3)(COC(C)=O)CC2)cc1 [Compound 58, (1-(4-acetamidobenzyl)-4-phenethylpiperidin-4-yl)methyl acetate] | > 10 mg/kg |
| CC(=O)Nc1ccc(CN2CCC(CCc3ccsc3)(C3CCO3)C2)cc1 (centres unmarked) [Compound 191] | < 10 mg/kg |
| CCOC[C@@]1(CCc2cc[nH]c(=O)c2)CCN(C(C)(C)c2ccc(C)nc2)C1.Cl [Compound 367, (S)-4-(2-(3-(ethoxymethyl)-1-(2-(6-methylpyridin-3-yl)propan-2-yl)pyrrolidin-3-yl)ethyl)pyridin-2(1H)-one HCl] | < 10 mg/kg |
| CCOCC1(/C=C/c2ccccn2)CCN(Cc2ccc(NC(C)=O)cc2)CC1 [Compound 166, (E)-N-(4-((4-(ethoxymethyl)-4-(2-(pyridin-2-yl)vinyl)piperidin-1-yl)methyl)phenyl)acetamide] | > 10 mg/kg |
| CCOCC1(CCc2ccccc2)CCN(Cc2ccc(-c3nnco3)cc2)CC1 [Compound 137, 2-(4-((4-(ethoxymethyl)-4-phenethylpiperidin-1-yl)methyl)phenyl)-1,3,4-oxadiazole] | > 10 mg/kg |
| CCOC[C@@]1(CN(C)c2ccccc2)CCN(Cc2ccc(C)nc2)C1 [Compound 421, (S)-N-((3-(ethoxymethyl)-1-((6-methylpyridin-3-yl)methyl)pyrrolidin-3-yl)methyl)-N-methylaniline] | < 10 mg/kg |
| C[C@H](O)[C@]1(CCc2cccs2)CCN(Cc2cccnc2)C1 (single isomer, unassigned) [Compound 422] | < 10 mg/kg |
| Cn1ccc(CN2CCC(CCc3ccccc3)(C3CCCO3)C2)n1 (centres unmarked) [Compound 214, 1-methyl-3-((3-phenethyl-3-(tetrahydrofuran-2-yl)pyrrolidin-1-yl)methyl)-1H-pyrazole] | > 10 mg/kg |
| CC(=O)Nc1ccc(CN2CCC(CCc3ccccc3)(C3OCC3(C)C)C2)cc1 (centres unmarked) [Compound 201, N-(4-((3-(3,3-dimethyloxetan-2-yl)-3-phenethylpyrrolidin-1-yl)methyl)phenyl)acetamide] | < 10 mg/kg |
| CCOCC1(CCc2ccccc2)CCN(Cc2ccc(CNC(C)=O)cc2)CC1.Cl [Compound 169, N-(4-((4-(ethoxymethyl)-4-phenethylpiperidin-1-yl)methyl)benzyl)acetamide HCl] | > 10 mg/kg |
| CCOCC1(CCc2ccccc2)CCN(Cc2ccc(C(=O)O)cc2)CC1 [Compound 145, 4-((4-(ethoxymethyl)-4-phenethylpiperidin-1-yl)methyl)benzoic acid] | > 10 mg/kg |
| CCOC[C@@]1(CCc2ccsc2)CCN(Cc2ccc(C)nc2C)C1 [Compound 336] | < 10 mg/kg |

| SMILES | ED50 |
| --- | --- |
| COc1ccc(CN2CCC(CCc3ccccc3)(C3CCCO3)C2)cn1 (centres unmarked) [Compound 274, 2-methoxy-5-((3-phenethyl-3-(tetrahydrofuran-2-yl)pyrrolidin-1-yl)methyl)pyridine] | > 10 mg/kg |
| CCOC[C@@]1(CCc2ccc(C)cc2)CCN(Cc2cccnc2)C1 [Compound 437, (S)-3-((3-(ethoxymethyl)-3-(4-methyl-phenethyl)pyrrolidin-1-yl)methyl)pyridine] | < 10 mg/kg |
| CCOC[C@@]1(CCc2csc(C)c2)CCN(Cc2cccnc2)C1 [Compound 323, (S)-3-((3-(ethoxymethyl)-3-(2-(5-methylthiophen-3-yl)ethyl)pyrrolidin-1-yl)methyl)pyridine] | < 10 mg/kg |
| CCOCC1(CCc2ccc(F)s2)CCN(Cc2ccc(C)nc2)C1 (centres unmarked) [Compound 300, 5-((3-(ethoxymethyl)-3-(2-(5-fluorothiophen-2-yl)ethyl)pyrrolidin-1-yl)methyl)-2-methylpyridine] | < 10 mg/kg |
| CCOC[C@@]1(CCc2ccc(C)s2)CCN(Cc2ccc(C)nc2C)C1 [Compound 409, (S)-3-((3-(ethoxymethyl)-3-(2-(5-methylthiophen-2-yl)ethyl)pyrrolidin-1-yl)methyl)-2,6-dimethylpyridine] | < 10 mg/kg |
| CCOCC1(CCc2ccccc2)CCN(c2ccc(CNC(C)=O)cc2)CC1 [Compound 174, N-(4-(4-(ethoxymethyl)-4-phenethylpiperidin-1-yl)benzyl)acetamide] | > 10 mg/kg |
| CCOC[C@@]1(CCc2ccccc2)CCN(Cc2ccc(C)nc2)C1 [Compound 319, (S)-5-((3-(ethoxymethyl)-3-phenethylpyrrolidin-1-yl)methyl)-2-methylpyridine] | < 10 mg/kg |
| CCOCC1(CCc2ccccc2)CCN(Cc2ccc(CC(=O)OC)cc2)CC1 [Compound 181, methyl 2-(4-((4-(ethoxymethyl)-4-phenethylpiperidin-1-yl)methyl)phenyl)acetate] | > 10 mg/kg |
| CCOCC1(CCc2ccccc2)CCN(C(C)c2cnc(C)s2)C1 (centres unmarked) [Compound 346, 5-(1-(3-(ethoxymethyl)-3-phenethylpyrrolidin-1-yl)ethyl)-2-methylthiazole] | < 10 mg/kg |
| CCOC[C@@]1(CCc2csc(C)c2)CCN(Cc2ccc(C)nc2)C1 [Compound 335, (S)-5-((3-(ethoxymethyl)-3-(2-(5-methylthiophen-3-yl)ethyl)pyrrolidin-1-yl)methyl)-2-methylpyridine] | < 10 mg/kg |
| CCOCC1(CCc2ccccc2)CCN(Cc2ccc(CCOC)cc2)CC1 [Compound 128, 4-(ethoxymethyl)-1-(4-(2-methoxyethyl)benzyl)-4-phenethylpiperidine] | > 10 mg/kg |
| CCOCC1(CCc2ccccc2)CCN(Cc2ccc(NC(C)=O)cc2F)CC1 [Compound 85, N-(4-((4-(ethoxymethyl)-4-phenethylpiperidin-1-yl)methyl)-3-fluorophenyl)acetamide] | > 10 mg/kg |
| CCOCC1(CCc2cscc2C)CCN(Cc2cnn(C)c2)CC1 [Compound 280, 4-(ethoxymethyl)-1-((1-methyl-1H-pyrazol-4-yl)methyl)-4-(2-(4-methylthiophen-3-yl)ethyl)piperidine] | < 10 mg/kg |
| CCOC[C@@]1(CCc2ccsc2)CCN(C(C)(C)c2ccc(C)nc2)C1 [Compound 356, (S)-5-(2-(3-(ethoxymethyl)-3-(2-(thiophen-3-yl)ethyl)pyrrolidin-1-yl)propan-2-yl)-2-methylpyridine] | < 10 mg/kg |
| Cc1ncccc1CN1CCC(CCc2ccccc2)(C2CCCO2)C1 (centres unmarked) [Compound 263, 2-methyl-3-((3-phenethyl-3-(tetrahydrofuran-2-yl)pyrrolidin-1-yl)methyl)pyridine] | < 10 mg/kg |
| CC(=O)Nc1ccc(CN2CCC(CCc3ccccc3)(c3ccccn3)CC2)c(F)c1 [Compound 53, N-(3-fluoro-4-((4-phenethyl-4-(pyridin-2-yl)piperidin-1-yl)methyl)phenyl)acetamide] | > 10 mg/kg |
| CCOCC1(CCc2ccsc2)CCN(Cc2cnc(C)s2)C1 (stereo not drawn) [Compound 253, 5-((3-(ethoxymethyl)-3-(2-(thiophen-3-yl)ethyl)pyrrolidin-l-yl)methyl)-2-methylthiazole] | > 10 mg/kg |
| COC(=O)C1(CCc2ccccc2)CCN(Cc2ccc(NC(C)=O)cc2)C1 (centres unmarked) [Compound 28, methyl 1-(4-acetamidobenzyl)-3-phenethylpyrrolidine-3-carboxylate] | < 10 mg/kg |
| CC(=O)Nc1ccc(CN2CCC(CCc3ccccc3)(c3cccnc3)CC2)cc1 [Compound 6] | > 10 mg/kg |
| CC(=O)Nc1ccc(CN2CCC(CCc3ccccn3)(c3ccccn3)CC2)cc1 [Compound 16, N-(4-((4-(pyridin-2-yl)-4-(2-(pyridin-2-yl)ethyl)piperidin-1-yl)methyl)phenyl)acetamide] | > 10 mg/kg |
| CCOCC1(CCc2cc3ccccc3s2)CCN(Cc2ccc(C)nc2)C1 (centres unmarked) [Compound 301, 5-((3-(2-(benzo[b]thiophen-2-yl)ethyl)-3-(ethoxy-methyl)pyrrolidin-1-yl)methyl)-2-methylpyridine] | > 10 mg/kg |
| CC(=O)Nc1ccc(CN2CCC(CCc3ccccc3)(c3nnco3)CC2)cc1 [Compound 9] | > 10 mg/kg |
